Results taken from US8247378B2, “Homing peptide for tumor vasculature” (The Chinese University of Hong Kong, priority 2009, dated 2012).
Where no end group is shown, it is not given here. The star is where a group is joined. FITC = O=C1OC2(c3ccc(O)cc3Oc3cc(O)ccc32)c2ccc(NC(=S)*)cc21

Key:
[1] = test system: blood vessels (CD31) in orthotopic colorectal tumor tissues; assay: Biodistribution of FITC-conjugated peptide, colorectal cancer model; format: in vivo, mouse; conditions: 300 nmol i.v., 1 hour circulation
Method: (§1) To further confirm whether the selective phage homing was due to the CTPSPFSHC (SEQ ID NO:1) peptide (TCP-1), chemically synthetic FITC-conjugated TCP-1 or control peptide was intravenously injected into tumor-bearing mice to study the location of the peptide. Biodistribution of fluorescein-conjugated peptides was examined after i.v. injection of the peptide (300 nmol in 300 μl PBS) into the tail vein of a tumor-bearing mouse. The peptide was allowed to circulate for 1 hour.
Tumor and control tissues were collected and frozen sections prepared as described above in Example 1. Blood vessels were stained by CD31 antibody (secondary antibody conjugated Alexa-568). […] FITC-labeled control peptide was not found in the tumor tissues (FIG. 4A). Taken together with the immunolocalization analyses of TCP-1 phage homing, the peptide localization data confirmed that TCP-1 peptide homed specifically to blood vessels in tumor tissues but not to the vasculature of control organs.

[2] = test system: blood vessels of human colon and rectal adenocarcinoma tissues; assay: Peptide binding to tissue sections from human cancer; conditions: for binding to blood vessels of cancer tissues / binding to vasculature of normal colon tissues: 10 μmol/L, 1 hour, 37° C., human biopsy sections
Method: To establish the ability of TCP-1 to selectively bind to the vasculature of human tumors, human biopsy samples were studied. They were double stained and images photographically overlayed to determine tissue specificity. More specifically, multiple human biopsy samples containing both colon adenocarcinoma and normal colonic tissue were snap frozen, embedded in OCT, cut into 5 μm sections, and then arrayed on slides. The slides were incubated with 10 μmol/L FITC-CTPSPFSHC (SEQ ID NO:2) or FITC-CVQTAQLLC (SEQ ID NO:3) for 1 hour at 37° C., washed three times with PBS, fixed with 4% paraformaldehyde. Blood vessels were stained with mouse anti-human CD31 monoclonal antibody and Alexa Fluor 568 goat anti-mouse IgG as above described.
The positive binding was usually found in tumor tissues at more advanced stages (in terms of lymphovascular permeation, T staging, N staging, and overall Dukes' staging).

[3] = test system: orthotopic colorectal tumors; assay: Organ level imaging of tumor tissues with FITC-labeled peptide; format: in vivo, mice
Method: Imaging of tissue was done under a blue light, by using the imaging system of KODAK Image Station 2000MM.
To determine whether FITC-labeled TCP-1 accumulated into the tumor tissues can be visualized at the organ level, tumor-bearing mice were injected intravenously with FITC-labeled TCP-1, control peptide or PBS alone. More specifically, tumor-bearing mice were i.v. injected with 500 nmol fluorescein-conjugated peptide (in 500 μl PBS). The peptide was allowed to circulate for 20 hour. The mice were killed, and various tissues were excised and examined for fluorescence. Organ imaging was done under a blue light, by using the imaging system of KODAK Image Station 2000MM.
Further, FITC-labeled TCP-1 could specifically accumulate in the tumor tissues with various volumes (diameter 2 mm, 6 mm, 8 mm tested) (FIG. 5B).

[4] = test system: blood vessels (CD31) in gastric cancer tissues; assay: Biodistribution of FITC-conjugated peptide, gastric cancer model; format: in vivo, mouse; conditions: 300 nmol i.v., 1 hour circulation
Method: as §1, with “gastric cancer-bearing” for “tumor-bearing”
Tumor and control tissues were collected and frozen sections prepared as described above. Blood vessels were stained by CD31 antibody (secondary antibody conjugated Alexa-568). […] FITC-labeled control peptide was not found in the tumor tissues (FIG. 10 bottom). Taken together with the immunolocalization analyses of TCP-1 phage homing, the peptide localization data confirmed that TCP-1 peptide also homed specifically to blood vessels in gastric cancer tissues but not to the vasculature of control organs.

colon 26 cells = assay: In vitro cell viability assay (MTT assay), colon 26; format: cell-based, murine; conditions: colon 26, 6 h, increasing concentrations
Method: (§2) Cell lines and cell culture: The murine colorectal cancer cell colon 26, human colon cancer cell SW1116 were cultured at 37° C. in a humidified atmosphere containing 5% CO2, in RPMI-1640 medium supplemented with 2 g/L sodium bicarbonate, 100 units/ml penicillin, […] streptomycin and 10% FBS.
(§3) In vitro cell viability assay (MTT assay): Cell viability was assessed by MTT assay, which depends on the ability of viable cells to reduce the MTT to a colored formazan product. In brief, cells (10^4 cells per well) were seeded in 96-well microculture plates overnight for attachment, and then incubated with increasing concentrations of the peptides CTPSPFSHC-GG-D(KLAKLAK)2 or CTPSPFSHC (SEQ ID NO:1) or D(KLAKLAK)2 in 100 μl of 1% FBS in DMEM for 6˜48 hours at 37° C. In the next step, MTT was added to each well, and the cells were further incubated for 3 h. The colored formazan product was determined photometrically at 570 nm in a multi-well plate reader (Bio-Rad).
(§4) TCP-1 conjugate and induction of apoptosis in colorectal cancer cells: Next, in order to examine whether the TCP-1 peptide could serve as a drug carrier into cancer cells, we synthesized a chimeric peptide of TCP-1 peptide to a proapoptotic peptide D(KLAKLAK)2, which disrupts mitochondrial membranes upon receptor-mediated cell internalization and causes programmed cell death. Increasing concentrations of TCP-1 conjugate (TCP-GG-D(KLAKLAK)2), equimolar TCP-1 or D(KLAKLAK)2 were incubated with colon 26 or SW1116 cells at 37° C. Cell viability was assessed after 6 h (colon 26) and 48 h (SW1116). The effect of TCP-1 conjugate on the cell viability was determined and compared respectively with TCP-1 or D(KLAKLAK)2 alone.

[5] = test system: orthotopic colorectal cancer tissue (colon 26); assay: In vivo phage targeting assay, orthotopic colorectal cancer model; set-up: species or system BALB/c mice; conditions: synthetic peptide (300 μg) co-injected with CTPSPFSHC-phage
Method: The mice were maintained at Chinese University of Hong Kong Animal Facility.
The model was performed as previously published with some modifications. (See Takahashi T, Morotomi M, and Nomoto K (2004). A novel mouse model of rectal cancer established by orthotopic implantation of colon cancer cells. Cancer Sci 95, 514-519). Briefly, all mice were given the tap water containing 3% dextran sulfate sodium (DSS) for 8 days to induce colitis. Mice were fasted for 18 h (DSS) after colitis induction, and then anesthetized with sodium pentobarbital. Colon 26 cells (3×10^6 cells/40 μl/mouse) were infused intrarectally with a micropipette inserted 2 cm into the anus of the mice. The anus was compressed with a noncrushing microclamp immediately after instillation of tumor cells for 30 min to prevent leakage. Successful models were used for in vivo selection at 2 weeks after implantation of tumor cells.
The assay was as described in Zhang L, Giraudo E, Hoffman J A, Hanahan D, and Ruoslahti E (2006). Lymphatic zip codes in premalignant lesions and tumors. Cancer Res 66, 5696-5706. Briefly, mice bearing tumors were anesthetized and i.v. injected with 1×10^9 pfu CTPSPFSHC-phage or control phage. After 8 minutes, mice were perfused through the heart with DMEM containing 1% BSA. The tumor and control organs were removed from each mouse and the phage was rescued and titered. […]

SW1116 cells = assay: In vitro cell viability assay (MTT assay), SW1116; format: cell-based, human; conditions: SW1116, 48 h, increasing concentrations
Method: as §2, §3, §4

[6] = test system: tumor vasculature of orthotopic colorectal cancer; assay: Therapeutic treatment with proapoptotic conjugate, cleaved caspase 3/CD31 staining; format: in vivo
Source text: We conjugated TCP-1 with a pro-apoptotic peptide, D(KLAKLAK)2, which disrupts mitochondrial membranes upon receptor-mediated cell internalization and causes programmed cell death. This approach has been successfully employed for targeted apoptosis induction in angiogenic endothelial cells, tumor lymphatics and the vasculature of white fat. See: Zhang L, Giraudo E, Hoffman J A, Hanahan D, and Ruoslahti E (2006). Lymphatic zip codes in premalignant lesions and tumors. Cancer Res 66, 5696-5706; Kolonin M G, Saha P K, Chan L, Pasqualini R, and Arap W (2004). Reversal of obesity by targeted ablation of adipose tissue. Nat Med 10, 625-632; and, Ellerby H M, Arap W, Ellerby L M, Kain R, Andrusiak R, Rio G D, Krajewski S, Lombardo C R, Rao R, Ruoslahti E, et al. (1999). Anti-cancer activity of targeted pro-apoptotic peptides. Nat Med 5, 1032-1038. All-D enantiomer D(KLAKLAK)2 was used to avoid degradation by proteases. Ellerby H M, et al., (1999) Nat Med 5, 1032-1038.
Mice bearing orthotopic colorectal cancer were randomized into three groups. The therapeutic group was i.v. injected 260 μg/dose/mouse of the conjugated CTPSPFSHC-GG-D(KLAKLAK)2 [CDK]. Control groups received an equimolar mixture of CTPSPFSHC (SEQ ID NO:1) and D(KLAKLAK)2 [DKK], or PBS alone once every three days. Treatment was terminated 7 days after the first peptide administration as described in Kolonin M G, Saha P K, Chan L, Pasqualini R, and Arap W (2004). Reversal of obesity by targeted ablation of adipose tissue. Nat Med 10, 625-632 and Giordano R J, Landenranta J, Zhen L, Chukwueke U, Petrache I, Langley R R, Fidler I J, Pasqualini R, Tuder R M, and Arap W (2008). Targeted induction of lung endothelial cell apoptosis causes emphysema-like changes in the mouse. J Biol Chem 283, 29447-29460.
Tumors and control organs were dissected at the termination of the experiment. Histologic analysis was done to evaluate the density of tumor blood vessels. Apoptotic vascular endothelial cells were visualized by double staining with anticleaved caspase-3 and CD31 antibodies. […]

[7] = 500 nmol i.v., 20 h after injection

Substance	peptide localization in tumor tissues (CD31 co-staining) [1]	binding to blood vessels of cancer tissues [2]	binding to vasculature of normal colon tissues [2]	fluorescent signal in other control tissues [3, 7]	fluorescent signal in tumors, whole tissue under blue light [3, 7]	peptide localization in tumor tissues (CD31 co-staining) [4]	peptide fluorescence in vasculature of tumor tissue (histological analysis) ([3]; 20 h after injection)	effect on cell viability (colon 26 cells)	effect on cell viability (SW1116 cells)	other results
FITC-CTPSPFSHC ({FITC}-CTPSPFSHC; cysteine pairing not given here) [FITC-labeled TCP-1, FITC-conjugated TCP-1 peptide for homing validation]	colocalised with CD31	bound	not to vasculature of normal colon tissues	no specific fluorescent signal	strong fluorescent signal	colocalised with CD31	–	–	–	peptide localization in control organs [1]: not detectable; colon adenocarcinomas recognized by the peptide ([2]; positive/total patients): 5/10; rectal adenocarcinomas recognized by the peptide ([2]; positive/total patients): 6/11; smallest tumor size detected ([3]; 500 nmol i.v., 20 hour circulation): 2 mm; peptide localization in control organs [4]: not detectable
FITC-CVQTAQLLC ({FITC}-CVQTAQLLC; cysteine pairing not given here) [FITC-labeled control peptide, FITC-conjugated negative control peptide, reference compound]	not found	did not interact	did not interact	no specific fluorescent signal	no fluorescent signal	not found	not detectable	–	–	–
CTPSPFSHC (also: cyclic) [TCP-1]	–	–	–	–	–	–	remained in the vasculature of tumor tissue	no significant effect on cell viability	no significant effect on cell viability	peptide fluorescence in control organs (histological analysis) ([3]; 20 h after injection): not in the control organs; effect on phage number recovered from control organs (brain, colon) [5]: not much affected; reduction of phage number recovered from the tumor tissue [5]: 95%
CTPSPFSHC-GG-D(KLAKLAK)2 [TCP-GG-D(KLAKLAK)2]	–	–	–	–	–	–	–	inhibited the proliferation of colon 26 and SW1116 cells more efficiently than D(KLAKLAK)2 alone	inhibited the proliferation of colon 26 and SW1116 cells more efficiently than D(KLAKLAK)2 alone	vasculature endothelial cells expressing active caspase 3 in tumors ([6]; 260 μg/dose/mouse i.v. once every three days, 7 days, vs PBS or uncoupled mixture): obvious increase; quantification of active caspase 3: apoptotic cells in the tumor vasculature ([6]; 260 μg/dose/mouse i.v., compared to the other two groups): remarkable increased number of apoptotic cells; apoptotic vasculature in normal colon tissues and brain tissues ([6]; mouse, in vivo): hardly active caspase-3 positive cells
D(KLAKLAK)2 [reference compound]	–	–	–	–	–	–	–	much weaker toxic effects	much weaker toxic effects	–
